One may read the EC50 as the midpoint of the concentration-response curve. A lower EC50 goes with higher potency in that assay.

From patent US11730817B2, “Pro-cyclic dinucleotides and pro-cyclic dinucleotide conjugates for cytokine induction” (INVIVOGEN, priority 2017, dated 2023) come the findings set out here.

For test [1], the system named is STING. Put plainly: ISG activity of protein:CDN and antigen:CDN conjugates in reporter cell lines. In kind it is cell-based. From the text:
In the present invention, we evaluated using reporter cell lines the ISG activity of protein:CDN conjugates using in vitro conditions favorable to the release of both components.

Test [2] deals with STING (Homo sapiens, UniProt Q86WV6, G230A/H232R/R293Q/R71H). Briefly: ISG54 (IRF pathway) reporter assay in THP1-Dual cells.
The subject of a further test is Type I IFNs. Put plainly: Whole-blood assay, type I IFN induction (HEK-Blue IFN-α/β-KO-STING readout). In kind it is cell-based, human. The conditions noted are these: relative to CL656 at 1 μM.
The next test concerns the target PDL1 (Homo sapiens, UniProt Q9NZQ7). Put plainly: Antigen binding ELISA of anti-PDL1mAb:CDN conjugate. The note with it: relative to anti PDL1 at 10 μg/mL. From the text: We performed Whole Blood Assay on healthy human donors to evaluate the ability of the anti-PDL1mAb:CDN conjugate (Compound 47) to induce type I interferons as described previously in Example 2.2. The binding properties of the anti-PDL1mAb:CDN conjugate have been evaluated using ELISA.
(ELISA stands for enzyme-linked immunosorbent assay.)

Sequence of STING (Homo sapiens, UniProt Q86WV6, G230A/H232R/R293Q/R71H) (Q86WV6 whole entry R71H/G230A/H232R/R293Q): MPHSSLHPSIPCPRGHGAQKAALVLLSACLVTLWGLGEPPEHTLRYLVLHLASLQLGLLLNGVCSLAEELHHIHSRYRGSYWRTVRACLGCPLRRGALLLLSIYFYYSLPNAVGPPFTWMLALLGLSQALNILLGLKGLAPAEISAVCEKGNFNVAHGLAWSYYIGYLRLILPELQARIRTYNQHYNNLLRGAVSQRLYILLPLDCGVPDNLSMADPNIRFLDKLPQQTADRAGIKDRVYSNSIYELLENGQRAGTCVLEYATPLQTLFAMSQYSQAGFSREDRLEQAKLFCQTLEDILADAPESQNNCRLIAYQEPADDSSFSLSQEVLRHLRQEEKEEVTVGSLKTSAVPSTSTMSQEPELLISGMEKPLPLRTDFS
Sequence of PDL1 (Q9NZQ7 19-290, species assumed): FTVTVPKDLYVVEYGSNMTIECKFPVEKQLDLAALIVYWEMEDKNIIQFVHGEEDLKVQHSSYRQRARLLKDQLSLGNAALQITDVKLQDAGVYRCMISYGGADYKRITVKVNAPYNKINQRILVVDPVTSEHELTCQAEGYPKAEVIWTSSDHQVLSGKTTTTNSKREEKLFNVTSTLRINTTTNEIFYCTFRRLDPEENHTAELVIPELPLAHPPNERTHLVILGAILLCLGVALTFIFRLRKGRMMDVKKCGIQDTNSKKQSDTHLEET

Consider `Nc1ncnc2c1ncn2[C@@H]1O[C@@H]2COP(=O)(S)O[C@H]3[C@@H](F)[C@H](n4cnc5c(=O)[nH]cnc54)O[C@@H]3COP(=O)(S)O[C@H]2[C@H]1F` (stereo partly shown) [CL656, 3′3′-cAIM(PS)2 Difluor (Rp/Sp)], for which, in the test with STING [1] (antigen:CDN conjugates), the “ISG activity @ 50 μg/mL (% of CL656 @ 1 μM)” value is listed as 100%. In the test with STING [1] (in vitro conditions favorable to release of both components), the “ISG activity @ 50 μg/mL (% of parental CND @ 1 μM)” value was 100%. For the same compound, on STING [2], the EC50 is 1 µM. For the same compound, on STING [2] (10 μM, THP1-Dual cells), the “Fold ISG induction vs unstimulated @10 μM” value came to 215 fold. Also, the “IFN activity @ 50 μg/mL in WBA (% of CL656 @ 1 μM)” value in the test on Type I IFNs turned out to be 100%.
With Atezolizumab, the “Antigen binding (% of anti PDL1 @ 10 μg/mL)” value on PDL1 came out at 100%. The “IFN activity @ 50 μg/mL in WBA (% of CL656 @ 1 μM)” value in the test on Type I IFNs is 0%.
